According to the supplement of paper PMC6045584:
± gives the standard deviation of the averaged measurements.

Experiments:
SAPACITABINE [1] = compound: T1, CCCCCCCCCCCCCCCC(=O)Nc1ccn([C@@H]2O[C@H](CO)[C@@H](O)[C@@H]2C#N)c(=O)n1 [SAPACITABINE]; assay: surviving fraction relative to DMSO-only wells; higher = less growth inhibition; conditions: exposure time: 5 days
Method in brief: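 Five days of continuous inhibitor exposure, at 0.5, 1, 5, 10, 50, 100, 500 and 1000 nM, followed a 24-hour period after log-phase tumour cell lines were seeded at 250–500 cells per well in 384-well plates. Surviving fraction was derived from CellTiter-Glo luminescence relative to the median of DMSO-only wells. Plates were read after 10 minutes at room temperature, and lines screened three times were kept only if replicate Pearson r >0.7 and median Z' >0.3.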

CANERTINIB = compound: C=CC(=O)Nc1cc2c(Nc3ccc(F)c(Cl)c3)ncnc2cc1OCCCN1CCOCC1 [CANERTINIB]; assay: area under dose-response curve of surviving fraction (unscaled, Aref=0) (surviving fraction x log10(nM)); higher = more resistant; conditions: exposure time: 5 days; dose range 0.5-1000 nM
Method in brief: (§1)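 Three screens per tumour cell line were run in 384-well plates at eight inhibitor concentrations from 0.5 to 1000 nM over five days. Surviving fractions, from CellTiter-Glo luminescence normalised to DMSO-only wells, were fitted with 3-parameter logistic curves in the drc R package. The reported area under the curve is the unscaled activity area. It spans log10 dose, and Aref is 0.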

SNX-5422 = compound: CC1(C)CC(=O)c2c(C(F)(F)F)nn(-c3ccc(C(N)=O)c(N[C@H]4CC[C@H](OC(=O)CN)CC4)c3)c2C1 [SNX-5422]; assay: as above; conditions: exposure time: 5 days; dose range 0.5-1000 nM
Method in brief: as §1

SAPACITABINE [2] = compound: T1, SAPACITABINE; assay: as above; conditions: exposure time: 5 days; dose range 0.5-1000 nM
Method in brief: as §1

BI-2536 = compound: CC[C@@H]1C(=O)N(C)c2cnc(Nc3ccc(C(=O)NC4CCN(C)CC4)cc3OC)nc2N1C1CCCC1 [BI-2536]; assay: as above; conditions: exposure time: 5 days; dose range 0.5-1000 nM
Method in brief: as §1

AFATINIB = compound: CN(C)C/C=C/C(=O)Nc1cc2c(Nc3ccc(F)c(Cl)c3)ncnc2cc1O[C@H]1CCOC1 [AFATINIB]; assay: as above; conditions: exposure time: 5 days; dose range 0.5-1000 nM
Method in brief: as §1

MDV3100 = compound: CNC(=O)c1ccc(N2C(=S)N(c3ccc(C#N)c(C(F)(F)F)c3)C(=O)C2(C)C)cc1F [MDV3100]; assay: as above; conditions: exposure time: 5 days; dose range 0.5-1000 nM
Method in brief: as §1

[3] = compound: Cn1cc(C2=Nc3cc(NC(=O)C(N)C4CCCCC4)cc4c3C2=CNNC4=O)cn1; assay: as above; conditions: exposure time: 5 days; dose range 0.5-1000 nM
Method in brief: as §1

TIOGUANINE = compound: Nc1nc2[nH]cnc2c(=S)[nH]1 [TIOGUANINE]; assay: as above; conditions: exposure time: 5 days; dose range 0.5-1000 nM
Method in brief: as §1

Test System	surviving fraction (SAPACITABINE [1]; 0.5 nM)	surviving fraction (SAPACITABINE [1]; 1 nM)	surviving fraction (SAPACITABINE [1]; 5 nM)	surviving fraction (SAPACITABINE [1]; 10 nM)	surviving fraction (SAPACITABINE [1]; 50 nM)	surviving fraction (SAPACITABINE [1]; 100 nM)	surviving fraction (SAPACITABINE [1]; 500 nM)	surviving fraction (SAPACITABINE [1]; 1000 nM)	area under dose-response curve (CANERTINIB)	area under dose-response curve (SNX-5422)	area under dose-response curve (SAPACITABINE [2])	area under dose-response curve (BI-2536)	area under dose-response curve (AFATINIB)	area under dose-response curve (MDV3100)	area under dose-response curve [3]	area under dose-response curve (TIOGUANINE)
SIHA CERVIX	0.907 ± 0.068	0.863 ± 0.03	0.895 ± 0.044	0.91 ± 0.021	1.02 ± 0.026	0.972 ± 0.11	0.739 ± 0.046	0.641 ± 0.035	2.92	2.2	3.12	1.43	3.2	3.05	3.22	3.01
LM7 BONE	0.703 ± 0.044	0.708 ± 0.036	0.761 ± 0.015	0.641 ± 0.077	0.599 ± 0.037	0.4143 ± 0.0032	0.191 ± 0.036	0.162 ± 0.021	2.42	1.88	1.77	0.659	2.89	3.51	2.46	3.33
MG63 BONE	0.903 ± 0.027	0.898 ± 0.027	0.943 ± 0.021	0.9 ± 0.031	0.601 ± 0.014	0.357 ± 0.013	0.123 ± 0.019	0.217 ± 0.013	3.24	2.18	2.19	1.12	3.27	3.28	2.46	3.29
22RV1 PROSTATE	0.89 ± 0.094	1.06 ± 0.16	0.894 ± 0.042	0.8687 ± 0.0045	0.746 ± 0.12	0.692 ± 0.099	0.333 ± 0.029	0.199 ± 0.034	3.32	1.82	2.46	0.963	3.06	3.12	2.97	3.28
SAOS2 BONE	0.806 ± 0.032	0.811 ± 0.019	0.875 ± 0.029	0.779 ± 0.057	0.776 ± 0.013	0.566 ± 0.071	0.199 ± 0.018	0.153 ± 0.017	2.87	1.96	2.19	0.684	3.04	3.65	2.52	3.44
HUO3N1 BONE	0.915 ± 0.032	0.908 ± 0.036	0.931 ± 0.037	0.935 ± 0.024	0.886 ± 0.056	0.766 ± 0.056	0.528 ± 0.012	0.438 ± 0.019	3.18	2.53	2.73	1.56	3.17	3.37	2.88	3.41
SCC36 HEADNECK	0.776 ± 0.055	0.793 ± 0.048	0.815 ± 0.05	0.797 ± 0.11	1.02 ± 0.16	0.939 ± 0.092	0.737 ± 0.064	0.577 ± 0.0091	2.1	2.06	2.66	1.03	1.53	3.27	2.54	3.72
CAL120 BREAST	0.917 ± 0.028	0.901 ± 0.047	0.893 ± 0.081	0.876 ± 0.053	0.749 ± 0.06	0.631 ± 0.038	0.428 ± 0.01	0.3798 ± 0.0035	3.01	1.77	2.46	0.616	2.87	3.07	2.8	3.05
